From a melting point compilation (Tetko et al.; mined from patent text by program, amines drawn as free bases though some values may be those of a salt)

Compared with COc1ccc(NC(=O)N(Cc2ccccn2)C2CCCCCC2)c(NC(=O)c2cc(C(C)(C)C)c(O)c(C(C)(C)C)c2)c1, COCCOCOc1c(C(C)(C)C)cc(-c2ccc(C#N)c(C#N)c2)cc1C(C)(C)C is lower in melting point: 165 to 166 °C for the first, 130 to 131 °C for the second.

First: O=C(O)c1c2c(nc3ccc(F)cc13)-c1ccc(-c3ccccc3F)cc1CC2
Second: O=C1N(C(c2ccccc2)c2ccccc2)c2c(F)cccc2C12COc1cc3c(cc12)CCO3 (stereo not drawn)
The melting point of the first is higher: > 300 °C for the first, 183 to 184 °C for the second.

Compared with Cc1nc2c3c(c(C(=O)N4CCC4)cc2n1C)CCC(c1ccccc1)O3 (stereo not drawn), CC(=O)c1ccc(OCCCN2CCC(c3noc4cc(F)ccc34)CC2)cc1C is lower in melting point: 241 to 242 °C for the first, 113 to 114 °C for the second.

First: Cc1cc(OC(F)(F)F)cc2sc(N)nc12
Second: FC(F)(F)c1ccc(Oc2ccc3nonc3c2)c(Cl)c1
The melting point of the first is higher: 162 °C for the first, 65 to 66 °C for the second.

First: CC(C)Cn1cnc2c(N)nc3ccc(CCc4ccncc4)cc3c21
Second: COc1ccc(Cn2nc(-c3ccc(OC)cc3)c(-c3ccncc3)cc2=O)cc1
The melting point of the first is higher: 221 to 224 °C for the first, 143 °C for the second.

First: C=C(C)COc1ccc(C(=O)C=Cc2ccc(F)cc2)c2oc3ccccc3c(=O)c12
Second: CCCCc1oc2ccccc2c1C(=O)c1ccc2c(Br)c(OCC(=O)O)ccc2c1
The melting point of the first is lower: 135 to 137 °C for the first, 163 to 165 °C for the second.

Compared with CC(NC=O)c1ccccc1C(F)(F)C(F)(F)c1ccccc1 (stereo not drawn), O=c1cc(-c2ccccc2)sn1-c1nc2ccccc2s1 is higher in melting point: 103 to 105 °C for the first, 201 to 202 °C for the second.

First: COC(=O)c1sc2ccc([N+](=O)[O-])cc2c1N
Second: COc1ccc(OC(=O)C2CCCc3ccc([N+](=O)[O-])cc32)cc1 (stereo not drawn)
The melting point of the first is higher: 208 to 210 °C for the first, 109 to 110 °C for the second.

Compared with CC1Cc2cccc(-c3ccccc3)c2C1=O (stereo not drawn), Nc1nc2c(c(Nc3cccc(Cl)c3)n1)-c1ccccc1C2 is higher in melting point: 81.5 to 83 °C for the first, 224 to 225 °C for the second.

Compared with CSc1ncc(C=O)c(N)n1, CC(=O)OCc1csc(Nc2ccc(Br)cn2)n1 is higher in melting point: 184 to 186 °C for the first, 201 to 202 °C for the second.

First: O=C(CSc1ccccc1)c1ccc2[nH]c3nc(Cl)ccc3c2c1
Second: Nc1cc(Cl)ccc1Oc1c(C(=O)O)n(Cc2ccccc2)c2ccccc12
The melting point of the first is higher: 256 °C for the first, 218 to 219 °C for the second.

First: Cc1cc(C(O)(C(F)(F)F)C(F)(F)F)cc(C)c1OCC(=O)O
Second: Cc1cc(CCCOc2c(C)cc(-c3noc(CC(F)(F)F)n3)cc2C)on1
The melting point of the first is higher: 118 to 120 °C for the first, 84 to 85 °C for the second.

Compared with CC(=O)OC1NC(=O)C2=C1CN=C(c1ccccc1Cl)c1cc(Cl)ccc12 (stereo not drawn), CCOC(=O)c1c(N(C)C)c2cc(C)ccc2n(Cc2ccccc2)c1=O is lower in melting point: 172 to 174 °C for the first, 96 to 103 °C for the second.

Compared with C[C@@H]1CNC(=O)c2cc3ccc(C(F)(F)F)cc3n21, Nc1cccc(O)c1NC(=O)Nc1cccc(C(F)(F)F)c1 is lower in melting point: 201 to 204 °C for the first, 188 to 189 °C for the second.

First: Cc1oc(Cl)nc1-c1ccc(Cl)cc1Cl
Second: COc1nc2cc(Cl)cc(Cl)c2cc1Br
The melting point of the first is lower: 78 °C for the first, 135 to 138 °C for the second.

Compared with Cc1ccc2nc3cc(C)c(=O)cc-3sc2c1, Cc1ccc2c(=O)cc(C(N)=O)oc2c1 is higher in melting point: 177 °C for the first, > 300 °C for the second.

Compared with O=C(Nc1ccc(N2CCCCC2)cc1)N(C[C@H]1CC[C@H](CN(C(=O)Nc2ccc(N3CCCCC3)cc2)C2CCCCCC2)CC1)C1CCCCCC1, CN1C(=O)C(NC(=O)CC2CCCCC2)N=C(N2CCCCCC2)c2ccccc21 (stereo not drawn) is higher in melting point: 175 to 178 °C for the first, 205 to 207 °C for the second.

First: O=C1Nc2cccc(-c3ccc(C(=O)O)cc3)c2/C1=C/c1ccc[nH]1
Second: Cc1ccc(C(=O)C2=C(O)C(=O)N(c3ccc(C)nn3)C2c2cccc(OC(C)C)c2)cc1 (stereo not drawn)
The melting point of the first is higher: 315 to 317 °C for the first, 243 to 245 °C for the second.

First: COC(=O)c1c(C(=O)OC)c(-c2ccccc2)c(C(=O)O)c(C(=O)O)c1-c1ccccc1
Second: CC(C)c1cccc(C(C)C)c1N1C(=O)C(c2ccccc2)=C(c2ccccc2)C1=O
The melting point of the first is lower: 196 to 198 °C for the first, 233 to 234 °C for the second.

First: OCC(O)CNC(c1ccccc1)C(O)c1ccccc1 (stereo not drawn)
Second: O=C(Nc1nnc(C2CC2)o1)C(c1ccccc1)c1ccccc1
The melting point of the first is higher: 161 to 163 °C for the first, 159 to 160 °C for the second.

Compared with O=C(CCl)Nc1ccc2cn[nH]c2c1, Cc1cccc(C(=O)Nc2nc(C(Cl)(Cl)Cl)ns2)c1 is lower in melting point: 155 to 160 °C for the first, 142 °C for the second.

First: CCOCCc1ccc(OCCNc2ncnc(COC)c2Cl)c(C)c1
Second: Cc1cc(Br)cnc1CCCCNc1ncc(Cc2cccnc2)cc1[N+](=O)[O-]
The melting point of the first is lower: 39 to 41 °C for the first, 82 to 84 °C for the second.

Compared with O=C1CCC(N2C(=O)c3cccc(CNC(=O)c4ccccc4)c3C2=O)C(=O)N1 (stereo not drawn), O=C1CC[C@@H](c2ccccc2)[C@H](c2ccccc2)N1CO (relative stereo) is lower in melting point: 227 to 229 °C for the first, 127 to 129 °C for the second.

Compared with CC(C)(C)NCC(=O)c1cccc2cc(O)c(O)cc12, NC(=O)CC(=O)c1cn2c3c(cccc13)CCC2 is higher in melting point: 140 to 144 °C for the first, 200 to 201 °C for the second.

First: CCOC(=O)C(Cc1ccc(C(F)(F)F)cc1)C(=O)c1ccc(F)cc1F (stereo not drawn)
Second: CC(C)(Oc1ccc(OCc2cccc3c2cnn3-c2ccc(C(F)(F)F)cc2)cc1)C(=O)O
The melting point of the first is lower: 34 to 35 °C for the first, 128 to 130 °C for the second.

First: NS(=O)(=O)c1cc(C(=O)CCCC(=O)O)cc2c1OCC2
Second: COc1c(C)c2c(c(O)c1C/C=C(/Cl)CCC(=O)O)C(=O)OC2
The melting point of the first is higher: 207 to 209 °C for the first, 135 to 137 °C for the second.

Compared with CCc1[nH]nc2c1C(=O)c1c(NC(N)=O)cccc1-2, CCOC(=O)C(=O)C1COc2ccccc2C1=O (stereo not drawn) is lower in melting point: > 250 °C for the first, 73 to 75 °C for the second.

First: Cc1nccn1CCNC(=O)c1cccc2oc(-c3ccccc3)nc12
Second: CCOc1cccc(-n2nc(C)c3c(O)c(C(=O)c4ccccc4)cnc32)n1
The melting point of the first is lower: 125 to 127 °C for the first, 160 to 162 °C for the second.

Compared with C#CCN(C(CCn1c(=O)[nH]c(C)c(C)c1=O)C(=O)NO)S(=O)(=O)c1ccc(Oc2ccccc2)cc1 (stereo not drawn), CCCCC(C(=O)N[C@@H](CC(=O)O)c1ccc2c(c1)OCO2)N1C(=O)N(Cc2ccccc2)C(=O)C1(C)C (stereo partly drawn) is lower in melting point: 180 to 181 °C for the first, 53 to 55 °C for the second.

First: C[C@@H]1CNc2c(cccc2[N+](=O)[O-])[C@H](C)N1 (relative stereo)
Second: COc1cc2c(cc1OC)C(c1ccc([N+](=O)[O-])c(C)c1)=NN(c1noc(=O)[nH]1)[C@H](C)C2
The melting point of the first is lower: 62 °C for the first, 221 to 223 °C for the second.

First: FC(F)C(F)(F)Sc1nc(-c2ccccc2)c(-c2ccccc2)n1COCc1ccccc1
Second: O=c1oc(-c2ccc(OCCc3ccccc3)cc2)cc(O)c1SCCc1ccccc1
The melting point of the first is lower: 70 to 70.5 °C for the first, 103 to 106 °C for the second.

Compared with Cc1cc(O)ccc1COCCn1ccnn1, C=CCc1c(O)c(C)cc2ccc(=O)oc12 is higher in melting point: 92 to 93 °C for the first, 161 to 162 °C for the second.

Compared with CNCCCn1c2ccc(O)cc2c2c3c(c(-c4ccccc4)cc21)C(=O)NC3=O, CC(=O)OC1=C(c2nnn(Cc3ccccc3)n2)N(C)S(=O)(=O)c2ccccc21 is lower in melting point: 265 to 268 °C for the first, 173 °C for the second.

First: C=C(c1nc2ccccc2s1)C1CCN(CCc2ccc(OC)cc2)CC1
Second: O=C1N(CCO)c2ccccc2C(c2ccccc2)N1C1CCN(Cc2cccc(CO)c2)CC1 (stereo not drawn)
The melting point of the first is lower: 84 to 85 °C for the first, 185 to 187 °C for the second.

First: COc1ccc(C#N)cc1C(=O)NCCN1CCC(=C(O)c2ccc(F)cc2)CC1
Second: Cc1ccc(NCC2CCN(C(C)C)CC2)c(C(=O)Nc2ccc(F)cn2)c1
The melting point of the first is higher: 135 to 137 °C for the first, 58 to 60 °C for the second.

First: CC(C)OC(=O)N1CCC(c2nc3cc(-c4ccc(C(N)=O)c(Cl)c4)ccc3o2)CC1
Second: CCOC(=O)N1CCN(C2=Nc3cc(Br)ccc3N3CCc4cccc2c43)CC1
The melting point of the first is higher: 178 to 181 °C for the first, 128 to 131 °C for the second.

Compared with COc1cccc(C=C2SC(=S)N(CC(=O)O)C2=O)c1-c1cc2c(cc1C)C(C)(C)CCC2(C)C, COc1ccc(C2COc3c(ccc(O)c3C)C2)cc1OC (stereo not drawn) is lower in melting point: 149 °C for the first, 125 to 127 °C for the second.

First: Cn1c(=O)cc(CCc2ccc(Cl)s2)c2cc(C(O)(c3ccc(Cl)cc3)c3cccnc3)ccc21 (stereo not drawn)
Second: N#Cc1ccc(NC(=O)c2ccc(S(=O)(=O)N3CCc4cc(Cl)ccc43)cc2)c(-c2n[nH]c(=O)o2)c1
The melting point of the first is lower: 110 °C for the first, 262 to 264 °C for the second.

First: CCOC(=O)C(=O)Nc1ccc(C#N)cc1
Second: CC(=O)C1=C(O)C(=C(C)Nc2ccc(S)cc2)C(=O)OC1=O
The melting point of the first is lower: 188 °C for the first, 207 to 210 °C for the second.

First: CC(=O)Nc1c(C(=O)C2CCCC(C)C2)[nH]c2cc(Cl)ccc12 (stereo not drawn)
Second: CCOC(=O)Cc1ccc2c(c1)C(=O)C(NC(=O)OC)CC2 (stereo not drawn)
The melting point of the first is higher: 202 to 203 °C for the first, 95 to 97 °C for the second.

First: Cc1c(Br)sc2cc(C(=O)CBr)ccc12
Second: N#Cc1cc(-c2ccc(Cl)s2)[nH]c1Cl
The melting point of the first is lower: 126 to 128 °C for the first, > 200 °C for the second.

Compared with c1ccc(CN2CCN(c3n[nH]c4c3CCc3ccccc3-4)CC2)cc1, O=C(OCC1=CCN(Cc2c[nH]c3cccnc23)CC1)c1ccccc1 is lower in melting point: 254 to 256 °C for the first, 126 °C for the second.

First: O=C(O)CCNC(=O)c1ccc(-c2ccccc2OC2OC(CO)C(O)C(O)C2O)cc1 (stereo not drawn)
Second: CN(C)C1CCN2CCc3ccccc3C2(c2ccc(F)cc2)C1 (stereo not drawn)
The melting point of the first is lower: 101 to 104 °C for the first, 159 to 167 °C for the second.

First: CCOC(=O)COc1cc(F)c(C)cc1C(=O)NCc1ccc(Br)cc1F
Second: Cn1cc(C(=O)NCCCN)c(Nc2ccc(I)cc2F)cc1=O
The melting point of the first is lower: 128 to 129 °C for the first, 201 to 206 °C for the second.

First: Cc1nc(N)sc1-c1ccnc(Nc2ccc(N3CCOCC3)cc2)n1
Second: CCOc1csc2ccc(C(=O)c3cnoc3C3CC3)c(SC)c12
The melting point of the first is higher: 300 to 304 °C for the first, 166 to 168 °C for the second.

Compared with COc1ccc(C#Cc2cccc(C(C)N(O)C(N)=O)c2)cc1 (stereo not drawn), CNC(=O)C(Cc1ccc(OC)cc1)NC(=O)C(=CCC(=O)OC)CC(C)C (stereo not drawn) is higher in melting point: 141 to 142 °C for the first, 142 to 144 °C for the second.

Compared with O=C(C1CCC1)N1CCSCC1, O=C(O)C12CC3(F)CC(F)(CC(F)(C3)C1)C2 is higher in melting point: 39 to 40 °C for the first, 198 to 199 °C for the second.

Compared with ClCc1cnoc1-c1cc(Cl)c(Cl)s1, C=CCNC(=O)NC(=O)c1c(Cl)cccc1[Si](C)(C)C is higher in melting point: 60 to 61 °C for the first, 68 to 71 °C for the second.

First: CCn1c(=O)c2[nH]c(C(C)C)nc2n(Cc2ccc(Cl)cc2)c1=O
Second: COC(=O)CC(CC(=O)OC)Sc1cc(OC)ccc1[N+](=O)[O-]
The melting point of the first is higher: 221 to 222 °C for the first, 91 °C for the second.
